The term half-life denotes the time needed for the level to fall by half in the phase considered. Read a high half-life as slow loss.

Each structure is given as a SMILES string.

Results on five compounds are retold here after article PMC4575222 (ChemMedChem, 2011).

The subject of one series is Vero cells. As to the kind of experiment: Cytotoxicity against Vero cells. It is filed as cell-based.
Series [1] in a line: Metabolic stability in mouse liver microsomes. The conditions noted are these: for Qp,h (percentage ratio of predicted clearance over plasma flow): well-stirred model; for half-life: mouse, liver microsomes. Type of series: in vitro ADME.

Take `Cc1c(Cc2ccc(Cl)cc2)c(=O)n2c([nH]c3ccccc32)c1C#N` [3a, 2-(4-Chlorobenzyl)-3-methyl-1-oxo-1H,5H-pyrido[1,2-a]benzimidazole-4-carbonitrile]: the “selectivity index (SI)” value in the series with Vero cells (IC50 Vero cells over MICMABA, repeat testing) stood at 16. Further, the “toxicity toward Vero cells from the HTS studies” value in the series on Vero cells (initial HTS study, before repeat testing) was > 100 µm. Further, in series [1] (mouse liver microsomes), the “Qp,h (percentage ratio of predicted clearance over plasma flow)” value is 95.4%. The compound further displayed a half-life in series [1] of 6.5 min.
For the compound `Cc1c(Cc2cccc(C(F)(F)F)c2)c(=O)n2c([nH]c3ccccc32)c1C#N` [3d, 3-Methyl-1-oxo-2-[3-(trifluoromethyl)benzyl]-1H,5H-pyrido[1,2-a]-benzimidazole-4-carbonitrile], the “Qp,h (percentage ratio of predicted clearance over plasma flow)” value in series [1] (mouse liver microsomes) is given as 90.0%. In series [1], this compound showed a half-life of 15 min.
In the same order, the values of `COc1cccc(Cc2c(C)c(C#N)c3[nH]c4ccccc4n3c2=O)c1` [3e, 3-Methyl-2-(3-methoxybenzyl)-1-oxo-1H,5H-pyrido[1,2-a]benzimidazole-4-carbonitrile] are 93.5% and 9.43 min.
For `Cc1c(Cc2ccccc2)c(=O)n2c([nH]c3ccccc32)c1C#N` [3v, 2-Benzyl-3-methyl-1-oxo-1H,5H-pyrido[1,2-a]benzimidazole-4-carbonitrile], the “Qp,h (percentage ratio of predicted clearance over plasma flow)” value in series [1] (mouse liver microsomes) is reported as 94.5%. In series [1], the half-life was 7.82 min.
On to `Cc1c(C)c(=O)n2c([nH]c3ccccc32)c1C#N` [3w, 2,3-Dimethyl-1-oxo-1H,5H-pyrido[1,2-a]benzimidazole-4-carbonitrile], for which, in series [1] (mouse liver microsomes, 30 min incubation), the Half life result was “most stable member of the set of compounds tested”. In addition, in series [1] (mouse liver microsomes), the “Qp,h (percentage ratio of predicted clearance over plasma flow)” value is 72.5%. The same compound came in with a half-life in series [1] of 51.2 min.
